Converted amounts (≈) assume the structure as drawn. Values belong to the compound of their own block, whether it stands above or below them.
What was measured:
Experiment in all cases: ≥ marks a high value that may be exact or a test limit, other limits are often not marked, values filed in µg/mL are converted to µM
[1] = tested on: Staphylococcus carnosus KHS
[2] = tested on: Staphylococcus aureus ATCC 25923
[3] = tested on: Candida albicans ATCC 2002
[4] = tested on: Bacillus licheniformis X39
[5] = tested on: Psychrobacter faecalis X29
[6] = tested on: Rhodococcus rhodochrous X15
[7] = tested on: Escherichia coli
[8] = tested on: Enterococcus faecalis
[9] = tested on: Candida albicans
[10] = tested on: Aspergillus niger
[11] = tested on: Trichophyton simii
[12] = tested on: Aeromonas caviae
[13] = tested on: Cryptococcus neoformans
[14] = tested on: Nocardia brasiliensis
[15] = tested on: Trichophyton rubrum
[16] = tested on: Microsporum canis
[17] = tested on: Aspergillus fumigatus
[18] = tested on: Batrachochytrium dendrobatidis JEL-197
[19] = tested on: Escherichia coli ATCC 25726
[20] = tested on: Candida albicans ATCC 90028
[21] = tested on: Pseudomonas aeruginosa 78078
[22] = tested on: Pseudomonas aeruginosa 78327
[23] = tested on: Pseudomonas aeruginosa 78905
[24] = tested on: Pseudomonas aeruginosa 78073
[25] = tested on: Pseudomonas aeruginosa 78888
[26] = tested on: Pseudomonas aeruginosa 77733
[27] = tested on: Pseudomonas aeruginosa 78887
[28] = tested on: Pseudomonas aeruginosa 77905
[29] = tested on: Enterobacter cloacae NHTCC 53001
[30] = tested on: Escherichia coli ATCC 25922
[31] = tested on: Pseudomonas aeruginosa 87104
[32] = tested on: Staphylococcus aureus NCTC 8325
[33] = tested on: Pseudomonas aeruginosa ATCC 27853
[34] = tested on: Klebsiella pneumoniae KK3 9904
[35] = tested on: Pseudomonas aeruginosa 77319
[36] = tested on: Salmonella enterica subsp. enterica serovar Typhimurium ATCC 14028
[37] = tested on: Staphylococcus aureus TK784
[38] = tested on: Staphylococcus aureus ATCC 6538P
[39] = tested on: Bacillus subtilis ATCC 6633
[40] = tested on: Klebsiella pneumoniae ATCC 10031
[41] = tested on: Shigella dysenteriae ATCC 9752
[42] = tested on: Staphylococcus epidermidis ATCC 12228
[43] = tested on: Micrococcus luteus ATCC 10240

SMILES: CC[C@H](C)[C@H](NC(=O)[C@H](Cc1ccc(O)cc1)NC(=O)[C@H](Cc1cnc[nH]1)NC(=O)[C@H](CCCN=C(N)N)NC(=O)[C@H](CC(C)C)NC(=O)[C@H](C)NC(=O)[C@@H](NC(=O)[C@H](CC(C)C)NC(=O)[C@H](Cc1ccc(O)cc1)NC(=O)[C@H](CCCCN)NC(=O)[C@H](CC(N)=O)NC(=O)[C@H](CCSC)NC(=O)[C@H](CCC(=O)O)NC(=O)[C@H](CCC(=O)O)NC(=O)[C@@H]1CCCN1)[C@@H](C)O)C(=O)N[C@@H](CC(N)=O)C(=O)N[C@@H](CC(C)C)C(=O)N[C@H](C(=O)N[C@H](C(=O)N[C@@H](CCCN=C(N)N)C(=O)N[C@@H](CCC(N)=O)C(=O)N[C@@H](CCCN=C(N)N)C(=O)N[C@@H](Cc1ccc(O)cc1)C(N)=O)[C@@H](C)O)C(C)C [PEEMNKYLTALRHYINLVTRQRY]
- MIC [7]: 3.44 µM (≈ 10 µg/mL)
- MIC [8]: 3.44 µM (≈ 10 µg/mL)
- MIC [9]: 5.16 µM (≈ 15 µg/mL)
- MIC [10]: ≥ 34.4 µM
- MIC [11]: 3.44 µM (≈ 10 µg/mL)
- MIC [12]: 13.7 µM (≈ 40 µg/mL)
- MIC [13]: 6.87 µM (≈ 20 µg/mL)
- MIC [14]: 6.87 µM (≈ 20 µg/mL)
- MIC [15]: 5.16 µM (≈ 15 µg/mL)
- MIC [16]: 3.44 µM (≈ 10 µg/mL)
- MIC [17]: 27.5 µM (≈ 80 µg/mL)

SMILES: CC[C@H](C)[C@H](NC(=O)[C@H](Cc1cnc[nH]1)NC(=O)[C@H](CCCCN)NC(=O)CNC(=O)[C@H](C)NC(=O)[C@@H](NC(=O)[C@H](CCCCN)NC(=O)[C@H](CC(C)C)NC(=O)[C@@H](NC(=O)CNC(=O)[C@H](CCCCN)NC(=O)[C@H](Cc1ccccc1)NC(=O)[C@H](CC(C)C)NC(=O)[C@H](CO)NC(=O)[C@H](CCSC)NC(=O)[C@H](CC(C)C)NC(=O)CN)C(C)C)[C@@H](C)O)C(=O)N[C@@H](Cc1ccccc1)C(=O)N[C@@H](CCCCN)C(=O)N[C@@H](CC(N)=O)C(=O)N[C@H](C(=O)NCC(=O)NCC(=O)N[C@@H](CO)C(=O)N[C@@H](CC(C)C)C(=O)N[C@@H](CC(C)C)C(=O)N[C@@H](CC(=O)O)C(=O)N[C@@H](CCC(N)=O)C(=O)N[C@@H](C)C(=O)N[C@@H](CCCCN)C(=O)N[C@H]1CSSC[C@@H](C(=O)O)NC(=O)[C@H](CCC(=O)O)NC(=O)CNC(=O)[C@H]([C@@H](C)O)NC(=O)[C@H]([C@@H](C)CC)NC(=O)[C@H](CCCCN)NC1=O)C(C)C [GLMSLFKGVLKTAGKHIFKNVGGSLLDQAKCKITGEC]
- MIC [21]: 12 µM (≈ 46.7 µg/mL)
- MIC [22]: 6 µM (≈ 23.4 µg/mL)
- MIC [23]: 12 µM (≈ 46.7 µg/mL)
- MIC [24]: 6 µM (≈ 23.4 µg/mL)
- MIC [25]: 12 µM (≈ 46.7 µg/mL)
- MIC [26]: 12 µM (≈ 46.7 µg/mL)
- MIC [27]: 6 µM (≈ 23.4 µg/mL)
- MIC [28]: 6 µM (≈ 23.4 µg/mL)
- MIC [29]: 6 µM (≈ 23.4 µg/mL)
- MIC [30]: 6 µM (≈ 23.4 µg/mL)
- MIC [31]: 6 µM (≈ 23.4 µg/mL)
- MIC [20]: ≥ 100 µM
- MIC [32]: 25 µM (≈ 97.3 µg/mL)
- MIC [33]: 3 µM (≈ 11.7 µg/mL)
- MIC [34]: 6 µM (≈ 23.4 µg/mL)
- MIC [35]: 12 µM (≈ 46.7 µg/mL)

Continued, values first:

- MIC [1]: 19 µM (≈ 30 µg/mL)
- MIC [2]: 4.8 µM (≈ 7.58 µg/mL)
- MIC [3]: 9.5 µM (≈ 15 µg/mL)
- MIC [4]: 19 µM (≈ 30 µg/mL)
- MIC [5]: ≥ 37.5 µM
- MIC [6]: 2.4 µM (≈ 3.79 µg/mL)
SMILES: CC[C@H](C)[C@H](NC(=O)[C@H](CCCCN)NC(=O)[C@H](CCCCN)NC(=O)[C@H](C)NC(=O)[C@H](CC(C)C)NC(=O)[C@H](CC(N)=O)NC(=O)[C@@H](NC(=O)[C@@H](NC(=O)[C@@H](NC(=O)[C@H](CC(N)=O)NC(=O)[C@H](CC(C)C)NC(=O)[C@@H](NC(=O)[C@@H](N)CC(N)=O)[C@@H](C)CC)[C@@H](C)O)[C@@H](C)CC)[C@@H](C)CC)C(=O)N[C@@H](CC(C)C)C(N)=O [NILNTIINLAKKIL]

- MIC [2]: 50 µM (≈ 129 µg/mL)
- MIC [18]: ≥ 50 µM
- MIC [19]: ≥ 100 µM
- MIC [20]: ≥ 100 µM
SMILES: CC[C@H](C)[C@H](NC(=O)[C@H](CO)NC(=O)[C@@H]1CCCN1C(=O)[C@@H](NC(=O)[C@H](CC(C)C)NC(=O)CNC(=O)[C@@H](NC(=O)[C@H](CC(C)C)NC(=O)[C@@H](NC(=O)[C@@H]1CCCN1C(=O)[C@H](CC(C)C)NC(=O)[C@@H](N)Cc1ccccc1)C(C)C)[C@@H](C)O)[C@@H](C)O)C(=O)N[C@H](C(=O)N1CCC[C@H]1C(=O)N[C@@H](CCCCN)C(=O)N[C@@H](CC(C)C)C(=O)N[C@H](C(=O)N[C@H]1CSSC[C@@H](C(=O)O)NC(=O)[C@H](CCCCN)NC(=O)[C@H](CCCCN)NC(=O)[C@H]([C@@H](C)O)NC(=O)[C@H](CC(C)C)NC(=O)[C@H](CC(C)C)NC1=O)C(C)C)C(C)C [FLPVLTGLTPSIVPKLVCLLTKKC]

- MIC [36]: 2.84 µM (≈ 4 µg/mL)
- MIC [37]: 5.67 µM (≈ 7.99 µg/mL)
- MIC [38]: 1.42 µM (≈ 2 µg/mL)
- MIC [30]: 2.84 µM (≈ 4 µg/mL)
- MIC [39]: 1.42 µM (≈ 2 µg/mL)
- MIC [40]: 1.42 µM (≈ 2 µg/mL)
- MIC [41]: 1.42 µM (≈ 2 µg/mL)
- MIC [33]: 5.67 µM (≈ 7.99 µg/mL)
- MIC [42]: 2.84 µM (≈ 4 µg/mL)
- MIC [43]: 2.84 µM (≈ 4 µg/mL)
SMILES: CC(C)C[C@H](NC(=O)[C@H](CCCCN)NC(=O)[C@H](CCCCN)NC(=O)[C@H](CC(C)C)NC(=O)[C@H](CC(C)C)NC(=O)[C@H](CCCCN)NC(=O)[C@H](CCCCN)NC(=O)[C@H](CC(C)C)NC(=O)[C@H](Cc1c[nH]c2ccccc12)NC(=O)[C@H](CCCCN)NC(=O)[C@@H](N)CC(C)C)C(N)=O [LKWLKKLLKKL]
